Data published in patent publication US10233157B2, “SIK inhibitor for use in a method of treating an inflammatory and/or immune disorder” (Dana-Farber Cancer Institute, Inc., priority 2012, dated 2019).
Entries after “also recorded” stand apart in the source; their conditions may differ.

Tests used:
LPS-stimulated BMDMs = experiment: Expression of macrophage markers in LPS-stimulated BMDMs (qPCR); format: cell-based, mouse; details: for LPS-stimulated expression of SPHK1, LIGHT and Arginase 1: 500 nM
Procedure: FIGS. 10A to 10E. Inhibition of the LKB1-SIK-CRTC3-IL10 signaling axis drives the expression of markers of regulatory macrophages. (FIG. 10A) Effect of SIK inhibitors on the LPS-stimulated expression of LIGHT, SPHK1, Arg1 and IL-1ra (n=4, mean±SD). […] (FIG. 10C) Elevated expression of markers of regulatory macrophage in LKB1−/− macrophages. BMDMs were generated from LysM-Cre/LKB1+/+ and LysM-Cre/LKB1flox/flox mice and stimulated with 100 ng/ml LPS (mean±SD, n=3). (FIG. 10D) CRTC3 is required for the induction of markers of regulatory macrophages. […] LIGHT and SPHK1 mRNA was measured at 2 h and Arg1 at 8 h post-LPS stimulation (mean±SD, n=4). […] The experiment was carried out as in (FIG. 10D) except that BMDMs were generated from IL-10+/+ and IL-10−/− mice (mean±SD, n=4).
mRNA was extracted from cells using the RNeasy Micro Kit following the manufacturers' instructions (Qiagen). cDNA was generated from 1 μg of total RNA using the iScript cDNA synthesis kit and quantified by qPCR using the SsoFast EvaGreen Supermix on a CFX96 real time system (Bio-Rad Laboratories). The relative expression of each gene was calculated from Ct values using the Pfaffl method (5) and was normalized against the mRNA levels of 18S RNA or GAPDH. Results are reported relative to untreated control cells, which was set to 1. The following primers were used: […]

AMPK-related kinases = format: biochemical; details: members of the AMPK subfamily other than SIKs
Procedure: Recombinant SIK1, SIK2, SIK3 were expressed as GST-fusion proteins in HEK293 cells and purified on a glutathione-Sepharose column. […] FLAG-CRTC3 was immunoprecipitated using anti-FLAG M2 agarose, washed in kinase buffer (50 mM Tris/HCl pH 7.4, 10 mM Mg acetate, 0.1 mM EGTA, 2 mM DTT) and reactions initiated by adding 4 U/ml recombinant kinase with 0.1 mM ATP (specific activity 3000 cpm/pmol). Phosphorylation of CRTC3 was monitored by autoradiography as well as immunoblotting using phosphospecific antibodies raised against Ser162, Ser329 and Ser370. […] Kinase profiling was performed as previously described (7) and performed by the International Centre for Kinase Profiling (www.kinase-screen.mrc.ac.uk).

CRTC3 = experiment: IL-10 production in macrophages after siRNA knockdown of CRTC3; format: cell-based, mouse; details: TLR/LPS-stimulated macrophages
Text: BMDMs were transfected with siRNA oligonucleotides against CRTC1, CRTC2, CRTC3 or non-targetting oligonucleotides as a negative control. […] Gene expression was quantified by qPCR and reported relative to mRNA levels measured in untreated cells (1.0). Knockdown efficiency was monitored by qPCR (mean±SD, n=4).
RNAi in Macrophages RAW264.7 cells or BMDMs were transfected with 100 pmol of SMARTpool siRNA oligos against CREB, CRTC1, CRTC2, CRTC3 or a non-targetting control (Dharmacon) using AMAXA nucleofection. Cells were cultured for 24 h prior to incubation with inhibitors for 1 h followed by stimulation for 1 h with 100 ng/ml LPS. Gene expression was measured by real-time quantitative PCR. For shRNA knockdown of SIKs, lentivirus was generated according to the manufacturer's instructions (Sigma) and RAW264.7 cells were infected using virus harvested 48 and 72 h post-transfection. Infected cells were selected using 3 μg/ml puromycin. QPCR

[1] = tested on: LPS-stimulated macrophages; experiment: Cytokine secretion in TLR-stimulated bone-marrow derived macrophages; format: cell-based, mouse
Procedure: Bone-marrow derived macrophages were differentiated for 7 days in DMEM supplemented with 5 ng/ml recombinant M-CSF (R&D systems), 2 mM glutamine, 10% foetal calf serum, penicillin and streptomycin.
Following stimulation with ligands, the cell culture medium was removed, clarified by centrifugation for 10 min at 14000×g and the concentration of TNFα, IL-6, IL-10, IL-12p40, and RANTES were measured using the Bio-Plex Pro Assay system from Bio-Rad. IFNβ was measured using an ELISA kit from R&D Systems according to the manufacturers' instructions.
RNA was extracted using the RNeasy Micro Kit (Qiagen). cDNA was generated using the iScript cDNA synthesis kit and quantified by qPCR using the SsoFast EvaGreen Supermix (Bio-Rad Laboratories). […] Fold-induction for each gene was reported relative to untreated control cells, which was set to 1. The concentrations of TNFα, IL-6, IL-10, IL-12p40, and RANTES in culture supernatants were measured using the Bio-Plex Pro Assay system from Bio-Rad. Further details in supplementary information.
Following stimulation with ligands, the cell culture medium was removed, clarified by centrifugation for 10 min at 14000×g and the concentration of TNFα, IL-6, IL-10, IL-12p40 and RANTES were measured using the Bio-Plex Pro Assay system from Bio-Rad. IL-1ra and IFNβ were measured using ELISA kits from R&D Systems.

CREB luciferase reporter = CREB luciferase reporter assay in HEK293 cells; format: cell-based; details: HEK293, 2 μM MRT67307, 10 μM forskolin 2 h
Procedure: FIG. 5. […] HEK293 cells were co-transfected with DNA encoding a CREB luciferase reporter construct and pTK-RL. […] Luciferase activity was measured with a dual luciferase assay system (Promega) and was normalized to Renilla luciferase activity (n=3, mean±SEM).
HEK293 cells were co-transfected with DNA encoding FLAG-CRTC3 or phosphomutants along with a CREB firefly luciferase reporter construct (pCRE-luc from Stratagene) and pTK-RL which encodes renilla luciferase under the control of a constitutive promoter. At 24 h post-transfection, cells were treated with or without 10 μM KIN112 for a further 24 h. Firefly luciferase activity was measured with a dual luciferase assay system (Promega) and was normalized to Renilla luciferase activity.

Row | SMILES | LPS-stimulated expression of SPHK1, LIGHT and Arginase 1 (LPS-stimulated BMDMs; IL-10−/− macrophages) | LPS-stimulated expression of SPHK1, LIGHT and Arginase 1 (LPS-stimulated BMDMs; cells treated with CRTC3 siRNA) | inhibition of AMPK-related kinases (AMPK-related kinases) | effect of compound on IL-10 production after siRNA knockdown of CRTC3 (CRTC3) | IL-10 secretion ([1]; LPS-stimulated macrophages) | pro-inflammatory cytokine secretion ([1]; LPS-stimulated macrophages) | IL-1ra mRNA (LPS-stimulated BMDMs; LPS-stimulated macrophages) | mRNAs of regulatory macrophage markers (arginase-1, SPHK1, LIGHT) (LPS-stimulated BMDMs; TLR/LPS-stimulated macrophages) | switch of macrophage programme from classically activated towards regulatory phenotype (LPS-stimulated BMDMs; quiescent macrophages) | CREB-dependent luciferase transcription (CREB luciferase reporter) | IFNβ secretion ([1]; LPS) | IL-10 secretion ([1]; in response to TLR ligands) | IL-12p40 secretion ([1]; in response to TLR ligands)
1 | COc1ccc(N(C(=O)Nc2c(C)cccc2C)c2cc(Nc3ccc(N4CCN(C)CC4)cc3)ncn2)c(OC)c1 [HG-9-91-01, 1-(2,4-dimethoxyphenyl)-3-(2,6-dimethylphenyl)-1-(6-((4-(4-methylpiperazin-1-yl)phenyl)amino)pyrimidin-4-yl)urea] | greatly reduced | did not occur | did not inhibit any other member | abolishes the effects; also recorded: CRTC3 was required | stimulate IL-10 secretion in a dose dependent manner; also recorded: increased | greatly suppressed | – | – | – | – | – | – | –
2 | O=C(NCCCNc1nc(Nc2cccc(CN3CCOCC3)c2)ncc1C1CC1)C1CCC1 [MRT67307] | – | – | potently inhibits | completely suppressed the effects | stimulate IL-10 secretion in a dose dependent manner; also recorded: far higher levels of IL-10 | much lower levels of pro-inflammatory cytokines | greatly increased | stimulating the production | switched their maturation programme from the classically activated route towards the regulatory phenotype | increases | potently inhibited | high levels of IL-10 | low levels of IL-12p40
